{"source": "patent US20150242566A1", "about": "“Methods and Systems for Designing Animal Food Compositions” (Hill's Pet Nutrition, Inc., priority 2005, published 2015)", "system": "gene expression in four canine cell lines: CCL34 (kidney), CRL1430 (thymus), CCL183 (bone), CTAC (thyroid)", "experiment": "Effect of test substances or ingredients on gene expression in canine cell lines (Affymetrix Canine-1 and Canine-2 gene chips)", "assay_type": "cell-based", "details": "for Direction of gene expression, probe 6282824_at: Canis familiaris carnitine palmitoyl transferase I isoform (CPT1) mRNA, human BC000185; for Direction of gene expression, probe 6282824_at / Direction of gene expression, probe 1605486_at: two concentrations per ingredient (Table 6), vs solvent control; for Direction of gene expression, probe 1605486_at: pyruvate dehydrogenase kinase 4 mRNA; for Direction of gene expression, probe 6283403_at: Sus scrofa carnitine palmitoyltransferase I mRNA, human AK172798", "from_the_text": "Cells cultured from mammalian cell lines are used to isolate good quality RNA which is then used for future downstream genomic analysis. All work related to the culturing of the cells is to be done under strict aseptic conditions. Procedure: Removing Cells from the OptiCell Chamber (proceed one OptiCell at a time). Check the cells under a microscope to ensure that the cells are alive before isolating RNA. Remove and discard the cell culture medium. Using the OptiCell knife cut away the top membrane exposing the cells on the lower membrane. Wash the membrane to which the cells are attached three times with 1X PBS. Pipette 600 uL of the Buffer RLT solution (containing R-Mercaptoethanol) onto the center of the membrane to which the cells are attached. Using the cell scraper, gently spread the Buffer RLT over the entire surface of the membrane, and then collect the liquid in one corner. Pipette off the entire volume of Buffer RLT and place into a QIAshredder spin column. RNA Isolation: Centrifuge the QIAshredder spin columns at 14,000 rpm for 2 minutes. Discard the spin column but keep the collection tube and its contents. Add 600 uL of 70% ethanol to the collection tube and mix well by pipetting (the total volume now=1.2 mL). Transfer 600 uL of the cell lysate to an RNeasy mini column and centrifuge for 15 seconds at 14,000 rpm. Discard the flow through but keep the collection tube and the spin column. Transfer the remaining volume of cell lysate (˜600 uL) to the spin column and repeat the centrifugation. Discard the flow through but keep the collection tube and the spin column. Add 700 uL Buffer RW1 to the spin column. Centrifuge for 15 seconds at 14,000 rpm to wash the column. Discard the flow through and the collection tube. Transfer the spin column to a new 2 mL collection tube and add 500 uL Buffer RPE to the column. Centrifuge for 15 seconds at 14,000 rpm. Discard the flow through, keep the collection tube/column. Add another 500 uL Buffer RPE to the column. Centrifuge for 2 minutes at 14,000 rpm. Transfer the spin column to a 1.5 mL collection tube. […] Store the final RNA at −70° C. Gene expression was analyzed using Affymetrix Canine 1 and Canine 2 GeneChip® Arrays available commercially from Affymetrix, Inc., Santa Clara, Calif. 95051. Total RNA is reverse transcribed into cDNA. The cDNA is used to generate cRNA which is fragmented and used as probes for GeneChip hybridization. The gene chip is washed and the hybridization signal is measured with an Affymetrix laser scanner. The hybridization data is then validated and normalized for further analysis. Procedure: All procedures follow exactly as described in GeneChip Expression Analysis Technical Manual (Affymetrix Copyright 1999-2003). Use 5 microgram of total RNA for the first strand cDNA synthesis. Use either Peltier Thermal Cycler PTC-200 or heat block for temperature control on reactions and probe denaturing. The quality control is performed using RNA […] chips with BioAnalyer 2100. Use 100 Format (Midi Array) for the canine genechip. […] TAGs; ALA: EPA: DHA; linoleic acid; stearic acid (SA), conjugated linoleic acid (CLA), GLA; arachidonic acid; lecithin; vitamin A, vitamin D, vitamin E, vitamin K, riboflavin, niacin, pyridoxine, pantothenic acid, folic acid, biotin vitamin C, catechin, quercetin, theaflavin; ubiquinone: lycopene, lycoxanthin; resveratrol; α-lipoic acid; L-carnitine; D-limonene; glucosamine; S-adenosylmethionine; chitosan, various materials containing one or more of these compounds, and various combination thereof on gene expression in four canine cell lines and appropriate controls. The solvent at the higher of the two concentrations was used as a control. Four canine cell lines are used: CCL34 (kidney), CRL1430 (thymus), CCL183 (bone) (Obtained from The American Tissue Culture Collection) and CTAC (thyroid) (See, Measurement of NK Activity in Effector Cells Purified from Canine Peripheral Lymphocytes. Veterinary Immunology and Immunopathology, 35 (1993) 239-251). […]", "data": [{"molecule": "CCCCC/C=C\\C/C=C\\CCCCCCCC(=O)O", "note": "[LA, linoleic acid]", "values": [{"measurement": "Direction of gene expression, probe 6282385_at", "setting": "Canis familiaris Na+-dependent glutamate transporter (GLAST) mRNA, human D26443", "result": "DOWN (down-regulated if its value is <1/1.5 (for across all 4 cell lines analysis) or <½ (for within cell lines analysis))"}, {"measurement": "Direction of gene expression, probe 6282824_at", "result": "UP (up-regulated if it is >1.5 (for across all 4 cell lines analysis) or >2 (for within cell lines analysis))"}, {"measurement": "Direction of gene expression, probe 1605486_at", "setting": "human AK096428", "result": "UP (up-regulated if it is >1.5 (for across all 4 cell lines analysis) or >2 (for within cell lines analysis))"}]}, {"molecule": "CC/C=C\\C/C=C\\C/C=C\\C/C=C\\C/C=C\\C/C=C\\CCC(=O)O", "note": "[DHA, docosahexaenoic acid]", "values": [{"measurement": "Direction of gene expression, probe 6282824_at", "result": "UP (up-regulated if it is >1.5 (for across all 4 cell lines analysis) or >2 (for within cell lines analysis))"}, {"measurement": "Direction of gene expression, probe 6287734_at", "setting": "Canis familiaris similar to Na/Pi cotransporter 4 (LOC478741) mRNA, human BC017952", "result": "UP (up-regulated if it is >1.5 (for across all 4 cell lines analysis) or >2 (for within cell lines analysis))"}, {"measurement": "Direction of gene expression, probe 1605486_at", "setting": "human AK096428", "result": "UP (up-regulated if it is >1.5 (for across all 4 cell lines analysis) or >2 (for within cell lines analysis))"}]}, {"molecule": "CCCCC/C=C\\C/C=C\\C/C=C\\C/C=C\\CCCC(=O)O", "note": "[ARA, arachidonic acid]", "values": [{"measurement": "Direction of gene expression, probe 6282824_at", "result": "UP (up-regulated if it is >1.5 (for across all 4 cell lines analysis) or >2 (for within cell lines analysis))"}, {"measurement": "Direction of gene expression, probe 1602749_at", "setting": "Homo sapiens BAC clone RP11-44D21 from 4, human AC108866", "result": "UP (up-regulated if it is >1.5 (for across all 4 cell lines analysis) or >2 (for within cell lines analysis))"}, {"measurement": "Direction of gene expression, probe 6283403_at", "result": "UP (up-regulated if it is >1.5 (for across all 4 cell lines analysis) or >2 (for within cell lines analysis))"}, {"measurement": "Direction of gene expression, probe 1605486_at", "setting": "human AK096428", "result": "UP (up-regulated if it is >1.5 (for across all 4 cell lines analysis) or >2 (for within cell lines analysis))"}]}, {"molecule": "CC/C=C\\C/C=C\\C/C=C\\C/C=C\\C/C=C\\CCCC(=O)O", "note": "[EPA, eicosapentaenoic acid]", "values": [{"measurement": "Direction of gene expression, probe 6283403_at", "result": "UP (up-regulated if it is >1.5 (for across all 4 cell lines analysis) or >2 (for within cell lines analysis))"}, {"measurement": "Direction of gene expression, probe 1605486_at", "setting": "human AK096428", "result": "UP (up-regulated if it is >1.5 (for across all 4 cell lines analysis) or >2 (for within cell lines analysis))"}, {"measurement": "Direction of gene expression, probe 6283329_at", "setting": "similar to secreted frizzled-related protein 4, human AC018634", "result": "DOWN (down-regulated if its value is <1/1.5 (for across all 4 cell lines analysis) or <½ (for within cell lines analysis))"}]}, {"molecule": "CC/C=C\\C/C=C\\C/C=C\\CCCCCCCC(=O)O", "note": "[ALA, α-linolenic acid]", "values": [{"measurement": "Direction of gene expression, probe 6282455_at", "setting": "Canis familiaris type I collagen pre-pro-alpha1(I) chain (COL1A1) mRNA, human AB209597", "result": "DOWN (down-regulated if its value is <1/1.5 (for across all 4 cell lines analysis) or <½ (for within cell lines analysis))"}, {"measurement": "Direction of gene expression, probe 1605486_at", "setting": "human AK096428", "result": "UP (up-regulated if it is >1.5 (for across all 4 cell lines analysis) or >2 (for within cell lines analysis))"}]}, {"molecule": "CCCCCCCCCCCCCCCCCC(=O)O", "note": "[SA, stearic acid]", "values": [{"measurement": "Direction of gene expression, probe CfaAffx.9845.1.S1_s_at", "setting": "Canis familiaris similar to leucine rich repeat containing 45 (LOC483375), human NM_144999", "result": "UP (up-regulated if it is >1.5 (for across all 4 cell lines analysis) or >2 (for within cell lines analysis))"}, {"measurement": "Direction of gene expression, probe Cfa.2282.1.S1_at", "setting": "Canis familiaris similar to pyruvate dehydrogenase kinase isoform 4 (LOC482310) mRNA, human AK096428", "result": "UP (up-regulated if it is >1.5 (for across all 4 cell lines analysis) or >2 (for within cell lines analysis))"}, {"measurement": "Direction of gene expression, probe Cfa.791.4.A1_at", "setting": "Canis familiaris similar to ribosomal protein L24, transcript variant 2 (LOC478547), human NM_000986", "result": "UP (up-regulated if it is >1.5 (for across all 4 cell lines analysis) or >2 (for within cell lines analysis))"}]}, {"molecule": "conjugated linoleic acid [CLA]", "values": [{"measurement": "Direction of gene expression, probe Cfa.10478.1.A1_at", "setting": "Bos taurus similar to Type II inositol-1,4,5-trisphosphate 5-phosphatase precursor (LOC538291), human AC005691", "result": "UP (up-regulated if it is >1.5 (for across all 4 cell lines analysis) or >2 (for within cell lines analysis))"}, {"measurement": "Direction of gene expression, probe Cfa.11267.1.A1_at", "setting": "Homo sapiens cDNA clone IMAGE: 4456146, human BC024645", "result": "DOWN (down-regulated if its value is <1/1.5 (for across all 4 cell lines analysis) or <½ (for within cell lines analysis))"}, {"measurement": "Direction of gene expression, probe Cfa.11358.1.A1_at", "setting": "Homo sapiens solute carrier family 20 (phosphate transporter), member 2 (SLC20A2) mRNA, human AF170802", "result": "UP (up-regulated if it is >1.5 (for across all 4 cell lines analysis) or >2 (for within cell lines analysis))"}]}]}
